From patent publication US9598364B2, “Indolyl or indolinyl hydroxamate compounds” (Taipei Medical University, priority 2010, dated 2017)
Where two headings read alike, the source gives them in different places. Blank lines part the entries; values can stand above or below the compound they belong to.

What was measured:
K562 = test: cells
Procedure: (§1) 10^4 cells per well were seeded in 96-well culture plates with or without one of the test compounds. Various concentrations for the test compound were examined. […] The drug concentration resulting in total growth inhibition (TGI) is determined when Ti=Tz.
(§2) Cells were seeded in a 96-well flat-bottomed plate (2,500 to 3,000 cells per well). […] After being incubated at 37° C. for 2 h, the supernatant was removed and 200 μl/well of DMSO were added to dissolve the remaining MTT dye. The absorbance at 570 nm in each well was determined using a plate reader.

U937 = test: cells
Procedure: as §1, §2

HL60 = test: cells
Procedure: as §1, §2

NB4 = test: cells
Procedure: as §1, §2

Kasumi-1 = test: MTT cell viability assay, Kasumi-1; format: cell-based
HA22T (hepatoma) = test: SRB assay, HA22T; format: cell-based, Human; conditions: HA22T cells, 48 h, read-out: HA22T liver GI50
Procedure: (§3) Human cancer A549 (non-small cell lung cancer), MDA-MB-231 (estrogen-independent breast cancer), Hep 3B (hepatoma), and HA22T (hepatoma) cells were seeded in 96-well plates in medium with 5% FBS. After 24 h, cells were fixed with 10% trichloroacetic acid (TCA) to represent cell population at the time of compound addition (T0). After additional incubation of DMSO or test compound for 48 h, cells were fixed with 10% TCA and SRB at 0.4% (w/v) in 1% acetic acid was added to stain cells. Unbound SRB was washed out by 1% acetic acid and SRB bound cells were solubilized with 10 mM Trizrna base. The absorbance was read at a wavelength of 515 nm. Using the absorbance measurements of time zero (T0), the control group (C), and the cell growth in the presence of the compound (Ti), the percentage growth was calculated at each of the compound concentrations levels.

[1] = test system: MDA-MB-231 (estrogen-independent breast cancer); test: SRB assay, MDA-MB-231; format: cell-based; conditions: Homo sapiens, MDA-MB-231 cells, 48 h
Procedure: as §3

PC-3 cells = test: Western blot analysis; format: cell-based; conditions: PC-3 cells, 1, 2.5, or 5 μM, 48 hours
Procedure: PC-3 cells treated with a test compound at 1, 2.5, or 5 μM in RPMI 1640 supplemented with 10% FBS for 48 hours. The cells were collected and sonicated. Protein concentrations in the resultant lysates were determined by a Bradford protein assay kit (Bio-Rad, Hercules, Calif.). The protein lysate, containing the same amount of proteins, were subjected to 10% SDS-polyacrylarnide gel (10%) electrophoresis. The proteins on the gel were then transferred onto an Immobilon-nitrocellulose membrane (Millipore, Bellerica, Mass.) in a semi-dry transfer cell. The transblotted membrane was washed twice with tris-buffered saline containing 0.1% Tween 20 (TBST). After being blocked with TBST containing 5% nonfat milk for 40 min, the membrane was incubated with a primary antibody specific to Acetyl-H3 (antibody obtained from Upstate Biotechnology, Inc., Lake Placid, N.Y.), H3 (Upstate Biotechnology), Acetyl α-tubulin (Sigma-Aldrich, St. Louis, Mo.), phospho-Akt (Serine 473) (Cell Signaling Technologies, Danvers, Mass.), Akt (Cell Signaling Technologies), Acetyl p53 (Santa Cruz Biotechnology, Santa Cruz, Calif.), p53 (Santa Cruz Biotechnology), p21 (Santa Cruz Biotechnology), or α-tubulin (Sigma-Aldrich, St. Louis, Mo.) (1:3000 dilution) in TBST/1% nonfat milk at 4 overnight. The membrane was washed three times with TBST for a total of 15 min and then incubated with a goat anti-rabbit or anti-mouse IgG antibody conjugated with horseradish (diluted 1:3000) for 1 h at room temperature. After being washed for at least three times with TBST, the signal intensity for each protein band was determined.

[2] = test system: A549 (non-small cell lung cancer); test: SRB assay, A549; format: cell-based, Human; conditions: A549 cells, 48 h
Procedure: as §3

Hep 3B (hepatoma) = test: SRB assay, Hep 3B; format: cell-based; conditions: Homo sapiens, Hep3B, Hep-3B cells, 48 h, read-out: Hep-3B liver GI50
Procedure: as §3

MV4-11 = test: cells
Procedure: as §1, §2

[3] = K562 leukemia cells, MTT, 48 or 72 hr
[4] = U937 leukemia cells, MTT, 48 or 72 hr
[5] = HL60 leukemia cells, MTT, 48 or 72 hr
[6] = NB4 leukemia cells, MTT, 48 or 72 hr
[7] = Kasumi-1 leukemia cells, MTT, 48 or 72 hr
[8] = Homo sapiens, K562, read-out: LC50
[9] = Homo sapiens, U-937, read-out: LC50
[10] = Homo sapiens, NB-4, read-out: LC50

Structure (SMILES): Nc1ccn([C@@H]2O[C@H](CO)[C@@H](O)[C@@H]2O)c(=O)n1 [Ara-C, reference compound]
- GI50 (K562; [3]): > 10000 nM
- TGI (K562; [3]): >10000 nM
- CC50 (K562; read-out: LC50, K562 leukemia cells, MTT, 48 or 72 hr): > 10000 nM
- GI50 (U937; [4]): 46.6 nM
- TGI (U937; [4]): 109.7 nM
- CC50 (U937; read-out: LC50, U937 leukemia cells, MTT, 48 or 72 hr): 665 nM
- GI50 (HL60; [5]): 445 nM
- TGI (HL60; [5]): 4344.3 nM
- GI50 (NB4; [6]): 448 nM
- TGI (NB4; [6]): 2324.0 nM
- CC50 (NB4; read-out: LC50, NB4 leukemia cells, MTT, 48 or 72 hr): 7320 nM
- GI50 (Kasumi-1; [7]): > 10000 nM
- TGI (Kasumi-1; [7]): >10000 nM
- CC50 (Kasumi-1; Kasumi-1 leukemia cells, MTT, 48 or 72 hr, read-out: LC50 (the source's name)): > 10000 nM

Structure (SMILES): O=C(C=Cc1ccc2c(ccn2S(=O)(=O)c2ccccc2)c1)NO [Compound 3, 3-(1-Benzenesulfonyl-1H-indol-5-yl)-N-hydroxy-acrylamide]
- GI50 (HA22T (hepatoma); Homo sapiens): 1150 nM
- GI50 (K562; Homo sapiens, K562): 9020 nM
- CC50 (K562; [8]): > 10000 nM
- TGI (K562; [3]): >10000 nM
- GI50 (U937; Homo sapiens, U-937): 162 nM
- CC50 (U937; [9]): 718 nM
- TGI (U937; [4]): 440.0 nM
- TGI (HL60; [5]): 535.8 nM
- GI50 (HL60; Homo sapiens, HL-60): 242 nM
- GI50 (NB4; Homo sapiens, NB-4): 223 nM
- CC50 (NB4; [10]): 779 nM
- TGI (NB4; [6]): 500.9 nM
- GI50 (Kasumi-1; Homo sapiens, Kasumi-1 leukemia cells, MTT, 48 or 72 hr): 96.6 nM
- CC50 (Kasumi-1; Homo sapiens, Kasumi-1 leukemia cells, MTT, 48 or 72 hr, read-out: LC50 (the source's name)): 694 nM
- TGI (Kasumi-1; [7]): 393.0 nM
- GI50 [1]: 480 nM
- H3 expression (PC-3 cells): upregulated
- histone deacetylation (PC-3 cells): inhibited
- tubulin acetylation (PC-3 cells): upregulated
- GI50 ([2]; Homo sapiens): 960 nM
- GI50 (Hep 3B (hepatoma)): 410 nM

Structure (SMILES): COc1ccc(S(=O)(=O)n2ccc3cc(C=CC(=O)NO)ccc32)cc1 [Compound 4, N-hydroxy-3-[1-(4-methoxy-benzenesulfonyl)-1H-indol-5-yl]-acrylamide]
- GI50 (HA22T (hepatoma); Homo sapiens): 1560 nM
- GI50 [1]: 750 nM
- GI50 ([2]; Homo sapiens): 1310 nM
- GI50 (Hep 3B (hepatoma)): 550 nM

Structure (SMILES): O=C(C=Cc1ccc2c(ccn2S(=O)(=O)c2ccc(F)cc2)c1)NO [Compound 5, 3-[1-(4-fluoro-benzenesulfonyl)-1H-indol-5-yl]-N-hydroxy-acrylamide]
- GI50 (HA22T (hepatoma); Homo sapiens): 2300 nM
- GI50 [1]: 660 nM
- GI50 ([2]; Homo sapiens): 1590 nM
- GI50 (Hep 3B (hepatoma)): 640 nM

Structure (SMILES): O=C(C=Cc1ccc2c(c1)CCN2S(=O)(=O)c1ccccc1)NO [Compound 12, 3-(1-benzenesulfonyl-2,3-dihydro-1H-indol-5-yl)-N-hydroxy-acrylamide]
- GI50 (HA22T (hepatoma); Homo sapiens): 620 nM
- GI50 (MV4-11; Homo sapiens, MV4-11): 13.1 nM
- CC50 (MV4-11; Homo sapiens, MV4-11, read-out: LC50): 87.2 nM
- TGI (MV4-11; MV4-11 leukemia cells, MTT, 48 or 72 hr): 50.2 nM
- GI50 (K562; Homo sapiens, K562): 149 nM
- CC50 (K562; [8]): > 10000 nM
- TGI (K562; [3]): 982.0 nM
- GI50 (U937; Homo sapiens, U-937): 54.7 nM
- CC50 (U937; [9]): > 10000 nM
- TGI (U937; [4]): 8330.0 nM
- TGI (HL60; [5]): 65.3 nM
- GI50 (HL60; Homo sapiens, HL-60): 32.9 nM
- GI50 (NB4; Homo sapiens, NB-4): 31.5 nM
- CC50 (NB4; [10]): 91 nM
- TGI (NB4; [6]): 61.2 nM
- GI50 [1]: 250 nM
- H3 expression (PC-3 cells): upregulated
- histone deacetylation (PC-3 cells): inhibited
- tubulin acetylation (PC-3 cells): upregulated
- GI50 ([2]; Homo sapiens): 700 nM
- GI50 (Hep 3B (hepatoma)): 210 nM

Structure (SMILES): O=C(C=Cc1ccc2c(c1)CCN2S(=O)(=O)c1ccc(F)cc1)NO [Compound 14, 3-[1-(4-fluoro-benzenesulfonyl)-2,3-dihydro-1H-indol-5-yl]-N-hydroxy-acrylamide]
- GI50 (HA22T (hepatoma); Homo sapiens): 1200 nM
- GI50 [1]: 370 nM
- GI50 ([2]; Homo sapiens): 600 nM
- GI50 (Hep 3B (hepatoma)): 250 nM

Structure (SMILES): Nc1ccc(S(=O)(=O)N2CCc3cc(C=CC(=O)NO)ccc32)cc1 [Compound 16, 3-[1-(4-amino-benzenesulfonyl)-2,3-dihydro-1H-indol-5-yl]-N-hydroxy-acrylamide]
- GI50 (HA22T (hepatoma); Homo sapiens): > 10000 nM
- GI50 [1]: > 10000 nM
- GI50 ([2]; Homo sapiens): > 10000 nM
- GI50 (Hep 3B (hepatoma)): > 10000 nM

Structure (SMILES): COc1ccc(S(=O)(=O)N2CCc3cc(C=CC(=O)NO)ccc32)cc1OC [Compound 17, 3-[1-(3,4-dimethoxy-benzenesulfonyl)-2,3-dihydro-1H-indol-5-yl]-N-hydroxy-acrylamide]
- GI50 (HA22T (hepatoma); Homo sapiens): 620 nM
- GI50 [1]: 190 nM
- GI50 ([2]; Homo sapiens): 320 nM
- GI50 (Hep 3B (hepatoma)): 160 nM

Structure (SMILES): O=C(CCCCCCC(=O)Nc1ccccc1)NO [SAHA, reference compound]
- GI50 (HA22T (hepatoma)): 2240 nM
- CC50 (K562): > 10000 nM
- GI50 (K562; [3]): > 10000 nM
- TGI (K562; [3]): >10000 nM
- CC50 (U937): 5850 nM
- GI50 (U937; [4]): 590 nM
- TGI (U937; [4]): 2006.9 nM
- GI50 (HL60; [5]): 455 nM
- TGI (HL60; [5]): 811.9 nM
- CC50 (NB4): 928 nM
- GI50 (NB4; [6]): 303 nM
- TGI (NB4; [6]): 615.8 nM
- CC50 (Kasumi-1): 917 nM
- TGI (Kasumi-1; [7]): 604.75 nM
- H3 expression (PC-3 cells): upregulated
- histone deacetylation (PC-3 cells): inhibited
- tubulin acetylation (PC-3 cells): upregulated
- GI50 [2]: 2370 nM

Now from value to compound:

- GI50 (HA22T (hepatoma); Homo sapiens): 1980 nM
- GI50 [1]: 750 nM
- GI50 ([2]; Homo sapiens): 2120 nM
- GI50 (Hep 3B (hepatoma)): 560 nM
Structure (SMILES): O=C(C=Cc1ccc2c(ccn2S(=O)(=O)c2ccc([N+](=O)[O-])cc2)c1)NO [Compound 6, N-hydroxy-3-[1-(4-nitro-benzenesulfonyl)-1H-indol-5-yl]-acrylamide]

- GI50 (HA22T (hepatoma); Homo sapiens): > 10000 nM
- GI50 [1]: > 10000 nM
- GI50 ([2]; Homo sapiens): > 10000 nM
- GI50 (Hep 3B (hepatoma)): > 10000 nM
Structure (SMILES): Nc1ccc(S(=O)(=O)n2ccc3cc(C=CC(=O)NO)ccc32)cc1 [Compound 7, 3-[1-(4-Amino-benzenesulfonyl)-1H-indol-5-yl]-N-hydroxy-acrylamide]

- GI50 (HA22T (hepatoma); Homo sapiens): 930 nM
- GI50 [1]: 370 nM
- GI50 ([2]; Homo sapiens): 930 nM
- GI50 (Hep 3B (hepatoma)): 360 nM
Structure (SMILES): COc1ccc(S(=O)(=O)n2ccc3cc(C=CC(=O)NO)ccc32)cc1OC [Compound 8, 3-[1-(3,4-dimethoxy-benzenesulfonyl)-1H-indol-5-yl]-N-hydroxy-acrylamide]

- GI50 (HA22T (hepatoma); Homo sapiens): 540 nM
- GI50 [1]: 160 nM
- GI50 ([2]; Homo sapiens): 320 nM
- GI50 (Hep 3B (hepatoma)): 140 nM
Structure (SMILES): COc1ccc(S(=O)(=O)N2CCc3cc(C=CC(=O)NO)ccc32)cc1 [Compound 13, N-hydroxy-3-[1-(4-methoxy-benzenesulfonyl)-2,3-dihydro-1H-indol-5-yl]-acrylamide]

- GI50 (HA22T (hepatoma); Homo sapiens): 740 nM
- GI50 [1]: 450 nM
- GI50 ([2]; Homo sapiens): 800 nM
- GI50 (Hep 3B (hepatoma)): 280 nM
Structure (SMILES): O=C(C=Cc1ccc2c(c1)CCN2S(=O)(=O)c1ccc([N+](=O)[O-])cc1)NO [Compound 15, N-hydroxy-3-[1-(4-nitro-benzenesulfonyl)-2,3-dihydro-1H-indol-5-yl]-acrylamide]
